Assay results taken from paper PMC3254644, “DNA Display Selection of Peptide Ligands for a Full-Length Human G Protein-Coupled Receptor on CHO-K1 Cells” (PLoS ONE, 2012).
Residues, ends and D or L forms follow the SMILES beside them.

How the values were obtained:
[1] = biological target: T1, human angiotensin II type 1 receptor (hAT1R) (Homo sapiens, UniProt P30556); experiment: Competitive binding assay at various concentrations of synthetic peptides (IC50); details: streptavidin-fused Ang II on hAT1R/CHO-K1 cells competed by 0–200 nM synthetic peptide; 10 min room temperature; quantitative Western blot (Fig. S1)
T1 construct: we applied the DNA display system to in vitro selection of peptide ligands for a full-length GPCR expressed on whole cells; polyhistidine (C); expressed in transfected cells
T1 sequence (P30556 1-359): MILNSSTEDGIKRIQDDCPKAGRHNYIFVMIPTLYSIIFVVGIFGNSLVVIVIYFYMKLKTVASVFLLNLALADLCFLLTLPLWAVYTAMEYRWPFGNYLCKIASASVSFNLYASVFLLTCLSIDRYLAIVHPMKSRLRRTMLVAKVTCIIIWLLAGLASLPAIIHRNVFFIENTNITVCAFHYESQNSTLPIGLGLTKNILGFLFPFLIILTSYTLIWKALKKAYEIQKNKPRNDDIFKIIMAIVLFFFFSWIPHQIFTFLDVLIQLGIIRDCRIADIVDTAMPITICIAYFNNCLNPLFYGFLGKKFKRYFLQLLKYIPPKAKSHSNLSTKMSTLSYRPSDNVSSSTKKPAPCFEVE
Description: Streptavidin-fused peptides for selected clones were prepared separately by using the PURE system classic II kit with 20 nM DNA for 1 h at 37°C. The streptavidin-fused peptides were incubated with the hAT1R-expressing cells for 10 min at room temperature in the presence 0–200 nM synthetic peptides (see next section) as competitors, and washed as described in the previous section. Then the binding proteins were recovered using 0.5 ml of lysis buffer (1% protease inhibitor cocktail and 4 M urea) on ice for 30 min. The cell lysates were analyzed by 15% SDS-PAGE and Western blot analysis using anti-T7·tag antibody (Novagen) followed by HRP-conjugated secondary antibody (Chemicon). The streptavidin-fused peptides with T7·tag were quantitatively detected by an ECL chemiluminescence kit and Hyperfilm ECL (GE Healthcare).
Supplementary file pone.0030084.s001.pdf: Figure S1 Competition curves for selected peptides. […] For details, see MATERIALS AND METHODS. (PDF) Click here for additional data file.

[2] = biological target: human angiotensin II (Ang II) type-1 receptor (hAT1R) with C-terminal c-myc tag, on CHO-K1 cells (human) (UniProt P30556); experiment: radioligand binding; [125I]Sar1,Ile8-Ang II, 0.05 nM to 20 nM, on hAT1R/CHO-K1 cells in 48-well plates; Ham's F12 with 1% BSA; 30 min at room temperature; Scatchard analysis; data not shown
[3] = test system: rat AT1R; design: method as in PMID 12969745; details: cited from earlier work

IC50 [1] | Molecule | further results
16 nM | CC[C@H](C)[C@H](NC(=O)[C@H](CCCNC(=N)N)NC(=O)[C@@H](N)CC(N)=O)C(=O)N[C@@H](Cc1ccc(O)cc1)C(=O)N[C@H](C(=O)N[C@@H](Cc1c[nH]cn1)C(=O)N1CCC[C@H]1C(=O)N[C@@H](Cc1ccccc1)C(=O)O)[C@@H](C)CC [LI5-1] (H-NRIYIHPF-OH) | 
75 nM | CC(C)C[C@H](NC(=O)[C@H](CCCNC(=N)N)NC(=O)[C@@H](N)Cc1c[nH]c2ccccc12)C(=O)N[C@@H](Cc1ccc(O)cc1)C(=O)N[C@@H](CC(C)C)C(=O)N[C@@H](Cc1c[nH]cn1)C(=O)N1CCC[C@H]1C(=O)N[C@@H](Cc1ccccc1)C(=O)O [LI5-2] (H-WRLYLHPF-OH) | 
8.6 nM | CC[C@H](C)[C@H](NC(=O)[C@@H]1CCCN1C(=O)[C@H](Cc1c[nH]cn1)NC(=O)[C@@H](NC(=O)[C@H](Cc1ccc(O)cc1)NC(=O)[C@H](CC(C)C)NC(=O)[C@H](CCCNC(=N)N)NC(=O)CN)[C@@H](C)CC)C(=O)O [LII3-2] (H-GRLYIHPI-OH) | 
48 nM | CC[C@H](C)[C@H](NC(=O)[C@H](Cc1ccc(O)cc1)NC(=O)[C@H](Cc1ccccc1)NC(=O)[C@H](CCCNC(=N)N)NC(=O)[C@@H](N)CCC(N)=O)C(=O)N[C@@H](Cc1c[nH]cn1)C(=O)N1CCC[C@H]1C(=O)N[C@@H](CC(C)C)C(=O)O [LII3-4] (H-QRFYIHPL-OH) | 
7.6 nM | CC[C@H](C)[C@H](NC(=O)[C@@H]1CCCN1C(=O)[C@H](Cc1c[nH]cn1)NC(=O)[C@@H](NC(=O)[C@H](Cc1ccc(O)cc1)NC(=O)[C@H](CC(C)C)NC(=O)[C@H](CCCCN)NC(=O)[C@@H](N)CCCNC(=N)N)[C@@H](C)CC)C(=O)O [LII3-5] (H-RKLYIHPI-OH) | 
 | [125I]Sar1,Ile8-Ang II (peptide) | Kd [2]: 8.2 nM
 | [Lys^2]Ang II (DKVYIHPF; Angiotensin-2; UniProt P01019 25-32, looked up, variant R2K) [Ang II analogue with Lys at position 2, from the literature] | affinity for rat AT1R relative to wild-type Ang II [3]: lower than that of wild-type Ang II
